Experimental findings from patent US20110178053A1, “AZACARBOLINE DERIVATIVES, PREPARATION METHOD THEREOF AND THERAPEUTIC USE OF SAME” (SANOFI-AVENTIS, priority 2008, published 2011) are described below.

Common to all, as to type: biochemical
The target of assay [1] is T1, Pim-1 (Homo sapiens, UniProt P11309).
T1 construct: His6-labelled recombinant full-length human Pim-1, Pim-2 or Pim-3 protein; His6; made in house
In words: TR-FRET assay, Pim-1 kinase (phosphorylation of Bad Ser112). To be noted: read-out: IC50 Pim1. As to the method: (§1) In order to determine the inhibition of activation of Pim kinases, the compounds of the invention are tested in accordance with a routinely used in vitro TR-FRET assay (Time-Resolved Fluorescence Resonance Energy Transfer). […] For the assay, the following reagents are used:
(§2) Pim kinase—His6-labelled recombinant full-length human Pim-1, Pim-2 or Pim-3 protein (prepared according to J. Mol. Biol. (2005) 348, 183-193); Bad—His6-labelled recombinant full-length human Bad protein (prepared according to J. Mol. Biol. (2005) 348, 183-193); α-His6-APC—murine monoclonal antibody conjugated to allophycocyanin SureLight™ directed against the His6 label (Perkin-Elmer, No. AD0059H, Waltham, Mass., United States); • β-P˜Bad-Eu—murine monoclonal antibody (Cell Signaling Technology #9296B, Danvers, Mass., United States) directed against phosphoBad (Ser112) (7E11) custom-labelled by Perkin-Elmer with the reagent LANCE™ Eu-W1024.
(§3) The assay is based on Perkin-Elmer's LANCE™ technology: the Eu-labelled antibody binds to phospho-Ser112 and generates a TR-FRET signal by interaction with the APC-labelled antibody directed against His6, bound to the His6 label of Bad. The TR-FRET signal is detected using a SpectraMax M5 plate reader (Molecular Devices) with the following settings: λex=340 nm, λem1=615 nm, λem2=665 nm. The ratio of the fluorescence signal at 665 nm to the fluorescence signal at 615 nm is used as the signal reading for the IC50 (calculation is based on the 4-parameter logistic model). The assay is performed in a 384-well format; the liquid manipulations are performed using a Beckman 3000 liquid manipulations station. The test compounds are tested at 10 concentration points in duplicate; the highest compound concentration is typically equal to 30 μM. The ATP concentration is equal to 40 μM, which is equivalent to the apparent KM value.
In general terms: In TR-FRET formats the signal depends on donor and acceptor labels being close together.

In assay [2] the target is T2, Pim-3 (Homo sapiens, UniProt Q86V86).
T2 construct: His6-labelled recombinant full-length human Pim-1, Pim-2 or Pim-3 protein; His6; made in house
The experiment in a line: TR-FRET assay, Pim-3 kinase (phosphorylation of Bad Ser112). To be noted: read-out: IC50 Pim3. How it is done:
as §1, §2, §3

Assay [3] deals with T3, Pim-2 (Homo sapiens, UniProt Q9P1W9).
T3 construct: His6-labelled recombinant full-length human Pim-1, Pim-2 or Pim-3 protein; His6; made in house
T3 sequence (Q9P1W9 whole entry): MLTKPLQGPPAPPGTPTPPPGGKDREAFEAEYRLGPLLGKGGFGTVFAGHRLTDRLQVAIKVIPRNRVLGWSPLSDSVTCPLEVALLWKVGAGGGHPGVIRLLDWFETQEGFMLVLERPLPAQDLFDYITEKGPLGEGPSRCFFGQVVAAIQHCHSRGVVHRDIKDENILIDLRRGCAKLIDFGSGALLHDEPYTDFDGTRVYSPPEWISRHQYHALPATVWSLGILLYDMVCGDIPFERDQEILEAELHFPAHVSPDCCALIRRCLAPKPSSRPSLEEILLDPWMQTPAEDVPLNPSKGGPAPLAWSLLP
In words: TR-FRET assay, Pim-2 kinase (phosphorylation of Bad Ser112). To be noted: read-out: IC50 Pim2. How it is done: as §1, §2, §3

The mark [4] stands for this setting: comparative compounds (Compound No., not claimed).

Read-outs that look alike come from different tables or passages of the source.

T1 sequence (P11309 whole entry): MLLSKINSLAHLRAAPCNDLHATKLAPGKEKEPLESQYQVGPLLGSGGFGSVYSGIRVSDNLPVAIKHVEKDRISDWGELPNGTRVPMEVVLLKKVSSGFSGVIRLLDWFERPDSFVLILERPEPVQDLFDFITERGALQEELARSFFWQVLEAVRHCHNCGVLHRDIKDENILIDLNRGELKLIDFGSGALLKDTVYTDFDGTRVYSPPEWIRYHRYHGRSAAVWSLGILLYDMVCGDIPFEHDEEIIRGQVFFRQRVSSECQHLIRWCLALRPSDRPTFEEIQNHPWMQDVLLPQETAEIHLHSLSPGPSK

As usually defined, the IC50 is the concentration at which inhibition is half-maximal. For the compound `COc1cc2c(cn1)[nH]c1cnc(-c3cccnc3)cc12` [Compound 51], the IC50 in assay [1] (setting [4]), in assay [2] (setting [4]) and in assay [3] (setting [4]) was > 5000 nM in each case.

Turning to `c1cncc(-c2cnc3[nH]c4ncccc4c3c2)c1` [Compound 56], the IC50 in assay [1] (setting [4]), in assay [2] (setting [4]) and in assay [3] (setting [4]) was > 5000 nM in each case. As to `COC(=O)c1cnc2[nH]c3cnc(-c4cccnc4)cc3c2c1` [Example 3, methyl 6-(pyrid-3-yl)-9H-pyrrolo[2,3-b:5,4-c′]dipyridine-3-carboxylate], in assay [1] (TR-FRET, ATP 40 μM), the IC50 is 100 to 1000 nM. In the case of `CCOC(=O)c1cnc2[nH]c3cnc(-c4cccnc4)cc3c2c1` [Example 4, ethyl 6-(pyrid-3-yl)-9H-pyrrolo [2,3-b:5,4-c′] dipyridine-3-carboxylate], the IC50 in assay [1] (TR-FRET, ATP 40 μM) was 1 to 100 nM; in assay [2] (TR-FRET, ATP 40 μM), 100 to 1000 nM; in assay [3] (TR-FRET, ATP 40 μM) it was 1000 to 5000 nM. For `Brc1cnc2[nH]c3cnc(-c4cccnc4)cc3c2c1` [Example 9, 3-bromo-6-(pyrid-3-yl)-9H-pyrrolo[2,3-b:5,4-c′]dipyridine] the same measures were 100 to 1000 nM, 100 to 1000 nM and 1000 to 5000 nM. With `CCN(CC)c1cnc2[nH]c3cnc(-c4cccnc4)cc3c2c1` [Example 11, N,N-diethyl-6-(pyrid-3-yl)-9H-pyrrolo[2,3-b:5,4-c′]dipyrid-3-amine], the IC50 in assay [1] (TR-FRET, ATP 40 μM) lay within 1000 to 5000 nM. For the compound `CN(CCCC(=O)N1CCCC1)c1cnc2[nH]c3cnc(-c4cccnc4)cc3c2c1` [Example 12, 4-{methyl[6-(pyrid-3-yl)-9H-pyrrolo-[2,3-b:5,4-c′]dipy-rid-3-yl]amino}-1-(pyrrolidin-1-yl)-butan-1-one], the IC50 in assay [1] (TR-FRET, ATP 40 μM) lay within 100 to 1000 nM.

`Clc1cnc2[nH]c3cnc(-c4cccnc4)cc3c2c1` [Example 13, 3-chloro-6-(pyrid-3-yl)-9H-pyrrolo[2,3-b:5,4-c′]dipyridine]: the IC50 in assay [1] (TR-FRET, ATP 40 μM) is 100 to 1000 nM; in assay [2] (TR-FRET, ATP 40 μM) it was 100 to 1000 nM; in assay [3] (TR-FRET, ATP 40 μM), 1000 to 5000 nM. Take `O=C(O)c1cnc2[nH]c3cnc(-c4cccnc4)cc3c2c1` [Example 19, 6-(pyrid-3-yl)-9H-pyrrolo[2,3-b:5,4-c′]dipyridine-3-carboxylic acid]: the IC50 in assay [1] (TR-FRET, ATP 40 μM) fell in the range of 100 to 1000 nM. On the same count and under the same terms, to `Fc1cnc2[nH]c3cnc(-c4cccnc4)cc3c2c1I` [Example 20, 3-fluoro-4-iodo-6-(pyrid-3-yl)-9H-pyrrolo[2,3-b:5,4-c′]dipyridine] belongs 1 to 100 nM; to `Fc1cncc(-c2cc3c(cn2)[nH]c2ncccc23)c1` [Example 42, 6-(5-fluoropyrid-3-yl)-9H-pyrrolo[2,3-b:5,4-c′]dipyridine], 1000 to 5000 nM. As to `CC(C)(C)OC(=O)N1CCN(c2ccc(-c3cnc4[nH]c5cnc(-c6cccnc6)cc5c4c3)cc2)CC1` [Example 129, 2-methyl-2-propyl 4-{4-[6-(pyrid-3-yl)-9H-pyrrolo[2,3-b:5,4-c′]dipyrid-3-yl]phenyl}-piperazine-1-carboxylate], the IC50 was 100 to 1000 nM in assay [1] (TR-FRET, ATP 40 μM) and 100 to 1000 nM in assay [2] (TR-FRET, ATP 40 μM). With `CC(C)(C)OC(=O)N1CCN(c2cccc(-c3cnc4[nH]c5cnc(-c6cccnc6)cc5c4c3)c2)CC1` [Example 131, 2-methyl-2-propyl 4-{3-[6-(pyrid-3-yl)-9H-pyrrolo[2,3-b:5,4-c′]dipyrid-3-yl]phenyl}piperazine-1-carboxylate], the IC50 is 100 to 1000 nM in assay [1] (TR-FRET, ATP 40 μM) and 100 to 1000 nM in assay [2] (TR-FRET, ATP 40 μM). Consider `CCc1cc(N(CC)CC)ncc1-c1cnc2[nH]c3cnc(-c4cccnc4)cc3c2c1` [Example 133, N,N-4-triethyl-5-[6-(pyrid-3-yl)-9H-pyrrolo[2,3-b:5,4-c′]dipyrid-3-yl]pyrid-2-amine], for which the IC50 in assay [1] (TR-FRET, ATP 40 μM) is 1 to 100 nM; in assay [2] (TR-FRET, ATP 40 μM), 100 to 1000 nM.

With `CC(C)(C)OC(=O)N1CCN(c2cc(-c3cnc4[nH]c5cnc(-c6cccnc6)cc5c4c3)ccn2)CC1` [Example 143, 2-methyl-2-propyl 4-{4-[6-(pyrid-3-yl)-9H-pyrrolo[2,3-b:5,4-c′]dipyrid-3-yl]pyrid-2-yl}piperazine-1-carboxylate], the IC50 is 100 to 1000 nM in assay [1] (TR-FRET, ATP 40 μM) and 100 to 1000 nM in assay [2] (TR-FRET, ATP 40 μM).
